The target in data set [1] is Neisseria gonorrhoeae FabI (Neisseria gonorrhoeae, UniProt A0ACH0F547). The data set is described as follows: Neisseria gonorrhoeae FabI inhibition assay (NADH consumption).
Description: Neisseria gonorrhoeae FabI Inhibition Assay:
Inhibition of Neisseria gonorrhoeae FabI enzyme activity was tested by measuring the rate of NADH consumption (Δabsorbance at 340 nm/min) at 30° C. in 96-well plate format using an automated plate reader in the presence or absence of the test compounds. […] This dose-response inhibitory assay was performed using an 11-point, serial dilution series for each test compound. IC50 values for each test compound were assigned from logistical sigmoid curve-fitting of the inhibition dose response curves.
For another data set, the system named is Neisseria gonorrhoeae. The data set is described as follows: MIC50 by CLSI agar dilution on a panel of N. gonorrhoeae clinical isolates. The note with it: agar dilution, GC agar base, minimum of 15 clinical isolates. In kind it is cell-based. The method, then: MIC50: MICs were determined in accordance with the appropriate Clinical and Laboratory Standards Institute (CLSI) methodology by the agar dilution susceptbility testing method in GC agar base.
On the technique in general: In agar dilution, organisms are placed on agar that contains the substance at set levels.

The test system of a further data set is Caco-2. Put plainly: Caco-2 permeability assay. In kind it is in vitro ADME. The note with it: 120 min incubation. The procedure:
(§1) Caco-2 assay: Compounds were incubated in a Caco-2 24-transwell system (Solvo Biotechnologies, Hungary) for 120 min, after which samples were taken from the donor and acceptor compartments of the transwell system. The integrity of each cell monolayer was controlled by measuring transepithelial electrical resistance (TEER) before the experiment. Lucifer yellow permeability (B to A) was also tested as a control on the same plate (all wells) after the actual experiment. The samples were analyzed using UPLC/MS/MS. The permeation of the compounds was monitored using relative LC/MS/MS peak areas (initial donor solution sample=100%).
For orientation: Passage across Caco-2 layers is used to estimate intestinal permeability.

Data set [2] in a line: Prediction of hepatic extraction ratio from liver microsome stability. Type of data set: in vitro ADME. The note with it: human liver microsomes, Well-Stirred model.
Description: In short, the study compounds were incubated with liver microsomes supplemented with cofactors (1 mM NADPH, 1 mM UDPGA+15 mM alamethicin). At selected time points, the assays were quenched using an equal volume of cold acetonitrile and samples were analyzed by UPLC/HR-MS to monitor disappearance rate of the compounds. […] With the use of species-specific physiologically-based scaling factors (PBSF) and the Well-Stirred model of hepatic clearance as modified by Poulin et al, Journal of Pharmaceutical Sciences, vol. […] 11, November 2012, the in vitro CLint was further transformed into in vivo CLint and to hepatic extraction ratio (ER) for both mouse and human.
The nature of data set [3]: Mouse cassette PK and oral bioavailability determination. The note with it: iv 1 mg/kg, po 2 mg/kg, cassette dosing; for bioavailability: female, BALB/c, mouse, plasma, read-out: Mouse F (%). Type of data set: in vivo, Female BALB/c mice. The method, then: Dose volumes were 5 ml/kg and 10 ml/kg for IV and oral administration, respectively. Compounds were co-formulated in a 10% DMSO (v/v) and 40% Captisol (w/v) in saline solution formulation (up to 3 compounds in a cassette). […] Tmax, Cmax, AUC, clearance, volume of distribution and oral bioavailability were estimated from the plasma concentrations using non-compartmental pharmacokinetic models. In particular, oral bioavailability (F %) was defined as F=(Doseiv*AUCpo)/(Dosepo*AUCiv)*100

Data set [4] is described as follows: Caco-2 permeability assay. The conditions noted are these: human, Caco-2; A2B, 120 min incubation. In kind it is in vitro ADME. The method, then: as §1
Data set [5] addresses Chlamydia trachomatis FabI (Chlamydia trachomatis serovar D (strain ATCC VR-885 / DSM 19411 / UW-3/Cx), UniProt O84106). Put plainly: Chlamydia trachomatis FabI inhibition assay (NADH consumption). The note with it: read-out: CT FABI IC50; recombinant C. trachomatis FabI, 30° C., pH 7.0.
Description: Example 65 Chlamydia trachomatis FabI Inhibition Assay
Inhibition of Chlamydia trachomatis FabI enzyme activity was tested by measuring the rate of NADH consumption (Δabsorbance at 340 nm/min) at 30° C. in 96-well plate format using an automated plate reader in the presence or absence of the test compounds. […] This dose-response inhibitory assay was performed using an 11-point, serial dilution series for each test compound. IC50 values for each test compound were assigned from logistical sigmoid curve-fitting of the inhibition dose response curves.
Setting [6] is: Neisseria gonorrhoeae, read-out: MIC50.

Read-outs that look alike come from different tables or passages of the source.

Chain of Neisseria gonorrhoeae FabI (A0ACH0F547 1-261): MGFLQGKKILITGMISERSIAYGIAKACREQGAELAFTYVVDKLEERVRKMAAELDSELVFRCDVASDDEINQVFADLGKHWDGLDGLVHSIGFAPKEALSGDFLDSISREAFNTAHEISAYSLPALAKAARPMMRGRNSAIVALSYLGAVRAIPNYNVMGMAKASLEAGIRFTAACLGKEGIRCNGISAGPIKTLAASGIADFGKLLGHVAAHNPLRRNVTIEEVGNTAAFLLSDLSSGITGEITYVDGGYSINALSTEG
Chain of Chlamydia trachomatis FabI (O84106 1-298): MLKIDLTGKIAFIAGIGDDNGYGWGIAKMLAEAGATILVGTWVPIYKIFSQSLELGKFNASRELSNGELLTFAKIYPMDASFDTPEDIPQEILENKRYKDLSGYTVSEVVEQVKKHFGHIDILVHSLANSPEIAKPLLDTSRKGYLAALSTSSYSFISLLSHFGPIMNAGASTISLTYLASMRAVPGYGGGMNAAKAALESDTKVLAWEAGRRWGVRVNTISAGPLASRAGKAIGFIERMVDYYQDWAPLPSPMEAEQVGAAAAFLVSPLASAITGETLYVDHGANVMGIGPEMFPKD

As a reminder, the IC50 is the concentration that inhibits the measured activity by half. The term MIC50 denotes an inhibitory concentration at the 50% level, which refers to growth in some studies and to a panel of isolates in others. As for `O=C1CCNc2cc(/C=C/C(=O)N3C[C@H]4CC(c5ccc(Oc6ccncc6)cc5)=C[C@H]4C3)cnc2N1` (racemic) [Compound 90, 8-((E)-3-Oxo-3-((3rS,6rR)-5-(4-(pyridin-4-yloxy)phenyl)-3,3r,4,6r-tetrahydrocyclopenta[c]pyrrol-2(1H)-yl)prop-1-en-1-yl)-1,2,3,5-tetrahydro-4H-pyrido[2,3-b][1,4]diazepin-4-one], the IC50 in data set [1] (read-out: ngFabI IC50, recombinant N. gonorrhoeae FabI, 30° C., pH 7.2) was under 10 nM. In addition, the MIC50 in the data set on Neisseria gonorrhoeae is under 1 µg/mL. In addition, in the data set with Caco-2, the “Caco-2 Papp A2B” value is 10.7 10−6 cm/s. Also, in data set [2], the “Predict Human hep ER” value is 0.03. Moreover, the “Mouse F (%)” value in data set [3] worked out at 7%.
As to `O=C1CCNc2cc(/C=C/C(=O)N3C[C@H]4CC(c5ccc(Oc6cncs6)cc5)=C[C@H]4C3)cnc2N1` [Compound 96, 8-((E)-3-Oxo-3-((3aS,6aR)-5-(4-(thiazol-5-yloxy)phenyl)-3,3a,4,6a-tetrahydrocyclopenta[c]pyrrol-2(1H)-yl)prop-1-en-1-yl)-1,2,3,5-tetrahydro-4H-pyrido[2,3-b][1,4]diazepin-4-one], the IC50 in data set [1] is under 10 nM. Moreover, the MIC50 in the data set with Neisseria gonorrhoeae (setting [6]) is under 1 µg/mL. The “Predict Human hep ER” value in data set [2] is given as 0.2. In data set [3], the bioavailability stood at 16%.
Usually Papp A→B stands for how fast a substance crosses the layer from the apical side. The low end stands for poor permeation, the high end for ready permeation. The compound `Cc1c(CN(C)C(=O)/C=C/c2cnc3c(c2)NCC2(CC(O)C2)C(=O)N3)oc2ccccc12` (stereo not drawn) [Compound 115, (E)-3-(3-Hydroxy-4′-oxo-1′,2′,4′,5′-tetrahydrospiro[cyclobutane-1,3′-pyrido[2,3-b][1,4]diazepin]-8′-yl)-N-methyl-N-((3-methylbenzofuran-2-yl)methyl)acrylamide] registered an IC50 in data set [1] of under 10 nM. The MIC50 in the data set with Neisseria gonorrhoeae (setting [6]) was under 1 µg/mL. The same compound displayed a Papp A→B at 120 min in data set [4] of 3.4 ×10⁻⁶ cm/s. Besides, the “Predict Human hep ER” value in data set [2] is on record as 0.28. Further, in data set [3], the bioavailability is 18%.
For the compound `COc1cccc(Oc2ccc(C3=C[C@H]4CN(C(=O)/C=C/c5cnc6c(c5)NCCC(=O)N6)C[C@H]4C3)cc2)c1` [Compound 129, 8-((E)-3-((3rS,6rR)-5-(4-(3-methoxyphenoxy)phenyl)-3,3r,4,6r-tetrahydrocyclopenta[c]pyrrol-2(1H)-yl)-3-oxoprop-1-en-1-yl)-1,2,3,5-tetrahydro-4H-pyrido[2,3-b][1,4]diazepin-4-one], the IC50 in data set [1] is under 10 nM. In addition, the MIC50 with Neisseria gonorrhoeae (setting [6]) is under 1 µg/mL. In addition, the “Predict Human hep ER” value in data set [2] is listed as 0.02. Moreover, in data set [3], the bioavailability came to 26%.
Take `Cc1oc2c(Oc3ccc4c(c3)N(C)CC4)cccc2c1CN(C)C(=O)/C=C/c1cnc2c(c1)NCCC(=O)N2` [Compound 134, (E)-N-Methyl-N-((2-methyl-7-((1-methylindolin-6-yl)oxy)benzofuran-3-yl)methyl)-3-(4-oxo-2,3,4,5-tetrahydro-1H-pyrido[2,3-b][1,4]diazepin-8-yl)acrylamide]: the IC50 in data set [1] was under 10 nM. The MIC50 with Neisseria gonorrhoeae (setting [6]) is under 1 µg/mL. The “Predict Human hep ER” value in data set [2] is listed as 0.43. Also, the bioavailability in data set [3] is 9%.
In data set [1], `COc1cc(Oc2ccc(C3=C[C@H]4CN(C(=O)/C=C/c5cnc6c(c5)NCCC(=O)N6)C[C@H]4C3)cc2)ccc1C#N` [Compound 140, 2-methoxy-4-(4-((3rS,6rR)-2-((E)-3-(4-oxo-2,3,4,5-tetrahydro-1H-pyrido[2,3-b][1,4]diazepin-8-yl)acryloyl)-1,2,3,3r,4,6r-hexahydrocyclopenta[c]pyrrol-5-yl)phenoxy)benzonitrile] came in with an IC50 of under 10 nM. Besides, the MIC50 with Neisseria gonorrhoeae (setting [6]) was under 1 µg/mL. Further, the “Predict Human hep ER” value in data set [2] is 0.13. Also, the bioavailability in data set [3] stood at 13%.
For the compound `COc1cccc(Oc2cccc3c(CN(C)C(=O)/C=C/c4cnc5c(c4)NCCC(=O)N5)c(C)oc23)c1` [Compound 155, (E)-N-((7-(3-methoxyphenoxy)-2-methylbenzofuran-3-yl)methyl)-N-methyl-3-(4-oxo-2,3,4,5-tetrahydro-1H-pyrido[2,3-b][1,4]diazepin-8-yl)acrylamide], the IC50 in data set [1] is under 10 nM; in data set [5], under 1000 nM. Further, the MIC50 with Neisseria gonorrhoeae (setting [6]) is under 1 µg/mL. The “Predict Human hep ER” value in data set [2] is listed as 0.32. Further, the bioavailability in data set [3] was 28%.
As for `Cc1oc2c(Oc3ccc4c(c3)OCO4)cccc2c1CN(C)C(=O)/C=C/c1cnc2c(c1)NC[C@@](C)(O)C(=O)N2` [Compound 176, (R,E)-N-((7-(benzo[d][1,3]dioxol-5-yloxy)-2-methylbenzofuran-3-yl)methyl)-3-(3-hydroxy-3-methyl-4-oxo-2,3,4,5-tetrahydro-1H-pyrido[2,3-b][1,4]diazepin-8-yl)-N-methylacrylamide], the IC50 in data set [1] was under 10 nM. In the data set with Neisseria gonorrhoeae (setting [6]), the MIC50 is under 1 µg/mL. The “Predict Human hep ER” value in data set [2] was 0.07. Further, in data set [3], the bioavailability came to 44%.
In the case of `Cc1c(CN(C)C(=O)/C=C/c2cnc3c(c2)NC[C@H](O)C(=O)N3)oc2cccc(N)c12` [Compound 275, (E)-N-[(4-Amino-3-methyl-benzofuran-2-yl)methyl]-3-[(3S)-3-hydroxy-4-oxo-1,2,3,5-tetrahydropyrido[2,3-b][1,4]diazepin-8-yl]-N-methyl-prop-2-enamide], the IC50 in data set [1] was under 10 nM; in data set [5], under 5000 nM. The MIC50 with Neisseria gonorrhoeae (setting [6]) was under 1 µg/mL. In data set [3], the bioavailability was 51%.

These data come from patent US12545672B2, “Antibiotic compounds, methods of manufacturing the same, pharmaceutical compositions containing the same and uses thereof” (Debiopharm International S.A., priority 2018, dated 2026).
